In US6569881B1, “Substituted benzimidazole, the production thereof and the use thereof as means against parasitic protozoa” (Bayer Aktiengesellschaft, priority 1999, dated 2003):

Columns and labels:
Type in all cases: in vivo, chicken chicks
[1] = test system: Eimeria tenella; assay: Cage experiments coccidiosis/chicks, Eimeria tenella part of the mixed infection; settings: for Efficacy against Eimeria tenella (grade): third symbol of cell; for Efficacy against Eimeria tenella (grade): key: 2 = complete action; 1 = weak action; 0 = inactive; D = death
Protocol: (§1) The efficacy of the compounds according to the invention can be confirmed, for example, in cage experiments using the following experimental arrangement, in which the animals are treated with the respective individual components and with the mixtures of the individual components.
(§2) An active compound-containing feed is prepared in such a way that the required amount of active compound is thoroughly mixed with a nutritionally balanced animal feed, e.g. with the chick feed indicated below.
(§3) 8 to 12 day-old male chicken chicks raised under coccidea-free conditions (e.g. LSL Brinkschulte/Senden) receive the compounds according to the invention (test substances) from 3 days before (day -3) the infection (=a.i.) until 8 (9) days after the infection (=p.i.) with the feed in the concentration indicated in ppm. Three animals are kept in each cage. Per dose, one to a number of groups of this type are employed. Infection is carried out by means of a stomach tube directly into the crop using approximately 100,000 sporulated oocysts of Eimeria acervulina and with in each case approximately 30,000 oocysts of E. maxima and 40,000 sporulated oocysts of E. tenella. These are highly virulent strains. The exact infectious dose is adjusted such that if possible one of three experimentally infected untreated chicks dies due to infection. For the assessment of the efficacy, the following criteria are taken into consideration: weight increase from the start of the experiment to the end of the experiment, death rate due to infection, macroscopic assessment of the faeces with respect to diarrhoea and excretion of blood on days 5 and 7 p.i. (grade 0 to 6), macroscopic grade of the intestinal mucous membrane, in particular of the cecums (grade 0 to 6) and the oocyst excretion and also the proportion (in %) of the oocysts sporulating within 24 hours. The number of oocysts in the faeces was determined with the aid of the McMaster counting chamber (see Engelbrecht and coworkers “Parasitologische Arbeitsmethoden in Medizin und Veterinärmedizin, [Parasitological working methods in medicine and veterinary medicine] Akademie-Verlag, Berlin (1965)). The individual findings are related to the untreated noninfected control groups and an overall grade is calculated (cf. A. Haberkorn (1986), pp. 263 to 270 in Research in Avian Coccidiosis ed L. R. McDougald, L. P. Joyner, P. L. Long Proceedings of the Georgia Coccidiosis Conference Nov, 18-20, 1985 Athens/Ga. USA).
(§4) In the columns “dropping scores”, “lesion score” and “oocyst control”, individual details of the action are given.

[2] = test system: Eimeria acervulina, Eimeria maxima and Eimeria tenella; assay: Cage experiments coccidiosis/chicks, mixed experimental infection
Protocol: as §1, §2, §3
In the column “ppm”, the concentration of the active compound employed in the feed is indicated in ppm.
In the column “mortality”, the percentage of the animals which have died is indicated under % and the number of the animals which have died/animals employed in the experiment is indicated under n.
In the column “weight % of not inf. control”, the ratio of the weight of the treated animals to the weight of the noninfected control group is indicated.
as §4
In the column “% efficacy”, the overall rating is assessed; 0% means no action, 100% means complete action.

[3] = test system: Eimeria maxima; assay: Cage experiments coccidiosis/chicks, Eimeria maxima part of the mixed infection; settings: for Efficacy against Eimeria maxima (grade): second symbol of cell; for Efficacy against Eimeria maxima (grade): key: 2 = complete action; 1 = weak action; 0 = inactive; D = death
Protocol: as §1, §2, §3, §4

[4] = test system: Eimeria acervulina; assay: Cage experiments coccidiosis/chicks, Eimeria acervulina part of the mixed infection; settings: for Efficacy against Eimeria acervulina (grade): first symbol of cell; for Efficacy against Eimeria acervulina (grade): key: 2 = complete action; 1 = weak action; 0 = inactive; D = death
Protocol: as §1, §2, §3, §4

Cc1oc(=O)oc1Cn1c(C(F)(F)F)nc2c(Br)cc3c(c21)OC(F)(F)C(F)(F)O3 [Example 14]
oocyst in % of inf. control ten. ([1]; 2.5 ppm in feed): 12%
oocyst in % of inf. control ten. ([1]; 5 ppm): 44 % of inf. control
oocyst in % of inf. control ten. ([1]; 5 ppm in feed): 1%
oocyst in % of inf. control ten. ([1]; 7.5 ppm): 15 % of inf. control
oocyst in % of inf. control ten. ([1]; 10 ppm): 26 % of inf. control
oocyst in % of inf. control ten. ([1]; 10 ppm in feed): 7%
Efficacy against Eimeria tenella (grade) ([1]; Dose 5 ppm): 1
Efficacy against Eimeria tenella (grade) ([1]; Dose 10 ppm): 1
% efficacy tot. ([2]; 2.5 ppm in feed): 30%
mortality % ([2]; 2.5 ppm in feed): 0%
mortality n (died/employed) ([2]; 2.5 ppm in feed): 0/3
oocyst in % of inf. control tot. ([2]; 2.5 ppm in feed): 35%
weight % of not inf. control ([2]; 2.5 ppm in feed): 44%
dropping scores ([2]; 2.5 ppm in feed, grade 0 to 6): 6
lesion score ([2]; 2.5 ppm in feed, grade 0 to 6): 6
% efficay tot. ([2]; 5 ppm): 0%
dropping scores ([2]; 5 ppm): 6
lesion score ([2]; 5 ppm): 6
mortality % ([2]; 5 ppm): 33%
mortality n ([2]; 5 ppm): 1/3
oocyst in % of inf. control tot. ([2]; 5 ppm): 67 % of inf. control
weight % of not inf. control ([2]; 5 ppm): 29 % of not inf. control
% efficacy tot. ([2]; 5 ppm in feed): 66%
mortality % ([2]; 5 ppm in feed): 33%
mortality n (died/employed) ([2]; 5 ppm in feed): 1/3
oocyst in % of inf. control tot. ([2]; 5 ppm in feed): 2%
weight % of not inf. control ([2]; 5 ppm in feed): 90.6%
dropping scores ([2]; 5 ppm in feed, grade 0 to 6): 6
lesion score ([2]; 5 ppm in feed, grade 0 to 6): 5.5
% efficay tot. ([2]; 7.5 ppm): 45%
dropping scores ([2]; 7.5 ppm): 6
lesion score ([2]; 7.5 ppm): 6
mortality % ([2]; 7.5 ppm): 0%
mortality n ([2]; 7.5 ppm): 0/3
oocyst in % of inf. control tot. ([2]; 7.5 ppm): 15 % of inf. control
weight % of not inf. control ([2]; 7.5 ppm): 61 % of not inf. control
% efficay tot. ([2]; 10 ppm): 45%
dropping scores ([2]; 10 ppm): 3
lesion score ([2]; 10 ppm): 6
mortality % ([2]; 10 ppm): 0%
mortality n ([2]; 10 ppm): 0/3
oocyst in % of inf. control tot. ([2]; 10 ppm): 16 % of inf. control
weight % of not inf. control ([2]; 10 ppm): 79 % of not inf. control
% efficacy tot. ([2]; 10 ppm in feed): 69%
mortality % ([2]; 10 ppm in feed): 0%
mortality n (died/employed) ([2]; 10 ppm in feed): 0/3
oocyst in % of inf. control tot. ([2]; 10 ppm in feed): 4%
weight % of not inf. control ([2]; 10 ppm in feed): 81%
dropping scores ([2]; 10 ppm in feed, grade 0 to 6): 4
lesion score ([2]; 10 ppm in feed, grade 0 to 6): 6
oocyst in % of inf. control max. ([3]; 2.5 ppm in feed): 0%
oocyst in % of inf. control max. ([3]; 5 ppm): 57 % of inf. control
oocyst in % of inf. control max. ([3]; 5 ppm in feed): 6%
oocyst in % of inf. control max. ([3]; 7.5 ppm): 1 % of inf. control
oocyst in % of inf. control max. ([3]; 10 ppm): >100 % of inf. control
oocyst in % of inf. control max. ([3]; 10 ppm in feed): 0%
Efficacy against Eimeria maxima (grade) ([3]; Dose 5 ppm): 2
Efficacy against Eimeria maxima (grade) ([3]; Dose 10 ppm): 2
oocyst in % of inf. control ac. ([4]; 2.5 ppm in feed): 92%
oocyst in % of inf. control ac. ([4]; 5 ppm): 80 % of inf. control
oocyst in % of inf. control ac. ([4]; 5 ppm in feed): 3%
oocyst in % of inf. control ac. ([4]; 7.5 ppm): 16 % of inf. control
oocyst in % of inf. control ac. ([4]; 10 ppm): 2 % of inf. control
oocyst in % of inf. control ac. ([4]; 10 ppm in feed): 1%
Efficacy against Eimeria acervulina (grade) ([4]; Dose 5 ppm): 2
Efficacy against Eimeria acervulina (grade) ([4]; Dose 10 ppm): 2
